Test results from patent US8815934B2, “2-Phenyl-1-[4-(2-Aminoethoxy)-Benzyl]-Indole and estrogen formulations” (Wyeth LLC, priority 1998, dated 2014).

How the values were obtained:
[1] = test system: Immature Sprague-Dawley rats; experiment: Rat uterotrophic/antiuterotrophic bioassay; type: in vivo; conditions: immature female rats, daily ip; for Uterine wt mg 100 uG cmpd + 1uG 17β-estradiol: 100 uG compound + 1 uG 17β-estradiol; for Uterine wt mg 100 uG cmpd: 100 uG compound, wet weight
Protocol: The estrogenic and antiestrogenic properties of the compounds were determined in an immature rat uterotrophic assay (4 day) that (as described previously by L. J. Black and R. L. Goode, Life Sciences, 26, 1453 (1980)). Immature Sprague-Dawley rats (female, 18 days old) were tested in groups of six. […] On day 4 the animals were sacrificed by CO2 asphyxiation and their uteri were removed and stripped of excess lipid, any fluid removed and the wet weight determined. A small section of one horn was submitted for histology and the remainder used to isolate total RNA in order to evaluate complement component 3 gene expression.

[2] = target: estrogen receptor (Homo sapiens (Human), UniProt P03372); experiment: 2×VIT ERE infection luciferase assay; type: cell-based; conditions: for Infection Luciferase Activity, 1 uM + 17β estradiol: 1 uM compound + 1 nM 17β-estradiol (estrogen antagonism); for Infection Luciferase Activity, 1 uM: 1 uM compound alone, percentage of activity as compared to 17β-estradiol
Protocol: Chinese Hamster Ovary cells (CHO) which had been stably transfected with the human estrogen receptor were maintained in DMEM+10% fetal bovine serum (FBS). 48 h prior to treatment the growth medium was replaced with DMEM lacking phenol red+10% dextran coated charcoal stripped FBS (treatment medium). Cells were plated at a density of 5000 cells/well in 96-well plates containing 200 μL of medium/well.
Reporter DNA (Promega plasmid pGL2 containing two tandem copies of the vitellogenin ERE in front of the minimal thymidine kinase promoter driving the luciferase gene) was combined with the B-galactosidase expression plasmid pCH110 (Pharmacia) and carrier DNA (pTZ18U) in the following ratio:
20 uL of this mixture was added to each well of cells and remained on the cells for 16 h. […] Each treatment condition was performed on 8 wells (n=8) which were incubated for 24 h prior to the luciferase assay.
After removing the PBS, 25 uL of Promega lysis buffer was added to each well and allowed to stand at room temperature for 15 min, followed by 15 min at −80° C. and 15 min at 37° C. 20 uL of lysate was transferred to an opaque 96 well plate for luciferase activity evaluation and the remaining lysate (5 uL) was used for the B-galactosidase activity evaluation (normalize transfection). The luciferan substrate (Promega) was added in 100 uL aliquots to each well automatically by the luminometer and the light produced (relative light units) was read 10 seconds after addition.
To the remaining 5 uL of lysate 45 uL of PBS was added. Then 50 uL of Promega B-galactosidase 2× assay buffer was added, mixed well and incubated at 37° C. for 1 hour. A plate containing a standard curve (0.1 to 1.5 milliunits in triplicate) was set up for each experimental run. The plates were analyzed on a Molecular Devices spectrophotometric plate reader at 410 nm. The optical densities for the unknown were converted to milliunits of activity by mathematical extrapolation from the standard curve.
The luciferase data was generated as relative light units (RLUs) accumulated during a 10 second measurement and automatically transferred to a JMP (SAS Inc) file where background RLUs were subtracted. The B-galactosidase values were automatically imported into the file and these values were divided into the RLUs to normalize the data. The mean and standard deviations were determined from a n=8 for each treatment. […] These techniques are described by Tzukerman, M. T., Esty, A., Santiso-Mere, D., Danielian, P., Parker, M. G., Stein, R. B., Pike, J. W. and McDonnel, D. P. (1994). Human estrogen receptor transactivational capacity was determined by both cellular and promoter context and mediated by two functionally distinct intramolecular regions (see Molecular Endocrinology, 8:21-30).

estrogen receptor, sequence (P03372 whole entry): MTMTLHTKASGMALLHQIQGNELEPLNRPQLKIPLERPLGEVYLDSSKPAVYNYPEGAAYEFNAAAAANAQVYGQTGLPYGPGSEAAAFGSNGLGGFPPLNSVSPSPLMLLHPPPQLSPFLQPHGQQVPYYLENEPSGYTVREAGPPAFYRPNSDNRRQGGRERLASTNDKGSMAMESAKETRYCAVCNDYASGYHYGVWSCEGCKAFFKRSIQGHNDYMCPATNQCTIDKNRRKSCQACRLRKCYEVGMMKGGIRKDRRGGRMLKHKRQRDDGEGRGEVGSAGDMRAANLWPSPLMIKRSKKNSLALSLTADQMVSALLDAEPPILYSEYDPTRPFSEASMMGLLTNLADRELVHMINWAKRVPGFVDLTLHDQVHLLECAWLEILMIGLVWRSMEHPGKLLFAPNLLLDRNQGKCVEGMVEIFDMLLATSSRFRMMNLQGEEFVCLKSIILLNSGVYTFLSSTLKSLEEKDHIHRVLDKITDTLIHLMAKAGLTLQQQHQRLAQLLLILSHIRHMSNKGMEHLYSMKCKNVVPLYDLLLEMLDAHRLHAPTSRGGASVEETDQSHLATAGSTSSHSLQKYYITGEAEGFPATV

SMILES	Uterine wt mg 100 uG cmpd + 1uG 17β-estradiol [1]	Uterine wt mg 100 uG cmpd [1]	Infection Luciferase Activity, 1 uM + 17β estradiol [2]	Infection Luciferase Activity, 1 uM [2]
CCN(CC)CCOc1ccc(Cn2c(-c3ccc(O)cc3)c(C)c3cc(O)ccc32)cc1 [No. 101, 2-(4-Hydroxy-phenyl)-3-methyl-1-[4-(2-diethyl-1-yl-ethoxy)-benzyl]-1H-indol-5-ol]	71.0 mg	65.1 mg		
CCCN(CCC)CCOc1ccc(Cn2c(-c3ccc(O)cc3)c(C)c3cc(O)ccc32)cc1 [No. 102, 1-[4-(2-Dipropylamino-ethoxy)-benzyl]-2-(4-hydroxy-phenyl)-3-methyl-1H-indol-5-ol]			10%	9%
CCCCN(CCCC)CCOc1ccc(Cn2c(-c3ccc(O)cc3)c(C)c3cc(O)ccc32)cc1 [No. 103, 1-[4-(2-Dibutylamino-ethoxy)-benzyl]-2-(4-hydroxy-phenyl)-3-methyl-1H-indol-5-ol]			10%	13%
Cc1c(-c2ccc(O)cc2)n(Cc2ccc(OCCN3CCCCC3)cc2)c2ccc(O)cc12 [No. 97, 2-(4-Hydroxy-phenyl)-3-methyl-1-[4-(2-piperidin-1-yl-ethoxy)-benzyl]-1H-indol-5-ol]	24.3 mg	27.4 mg		
Cc1c(-c2ccc(O)cc2)n(Cc2ccc(OCCN3CCCC3)cc2)c2ccc(O)cc12 [No. 96, 2-(4-Hydroxy-phenyl)-3-methyl-1-[4-(2-pyrollidin-1-yl-ethoxy)-benzyl]-1H-indol-5-ol]			8%	12%
COc1cc(Cn2c(-c3ccc(O)cc3)c(C)c3cc(O)ccc32)ccc1OCCN1CCCCCC1 [No. 168, 2-(4-Hydroxy-phenyl)-1-[3-methoxy-4-(2-azepan-1-yl-ethoxy)-benzyl]-3-methyl-1H-indol-5-ol]	81.7 mg	43.2 mg		
Cc1c(-c2ccccc2)n(Cc2ccc(OCCN3CCCCC3)cc2)c2ccc(O)cc12 [No. 87, 3-Methyl-2-phenyl-1-[4-(2-piperidine-1-yl-ethoxy)-benzyl]-1H-indol-5-ol]			0%	0%
CCCCN(C)CCOc1ccc(Cn2c(-c3ccc(O)cc3)c(C)c3cc(O)ccc32)cc1 [No. 105, 1-{4-[2-(Butyl-methyl-amino)-ethoxy]-benzyl}-2-(4-hydroxy-phenyl)-3-methyl-1H-indol-5-ol]			5%	5%
Oc1ccc(-c2c(Cl)c3cc(O)ccc3n2Cc2ccc(OCCN3CCCC3)cc2)cc1 [No. 133, 3-Chloro-2-(4-hydroxy-phenyl)-1-[4-(2-pyrrolidin-1-yl-ethoxy)-benzyl]-1H-indol-5-ol]			9%	7%
Cc1c(-c2ccc(O)cc2)n(Cc2ccc(OCCN(C)C)cc2)c2ccc(O)cc12 [No. 100, 2-(4-Hydroxy-phenyl)-3-methyl-1-[4-(2-dimethyl-1-yl-ethoxy)-benzyl]-1H-indol-5-ol]	68.7 mg	59.9 mg		
Cc1c(-c2cccc(O)c2)n(Cc2ccc(OCCN3CCCCC3)cc2)c2ccc(O)cc12 [No. 127, 2-(3-Hydroxy-phenyl)-3-methyl-1-[4-(2-piperidin-1-yl-ethoxy)-benzyl]-1H-indol-5-ol]			−4%	−3%
Cc1c(-c2ccc(O)cc2)n(Cc2ccc(OCCN3CCC(O)CC3)cc2)c2ccc(O)cc12 [No. 113, 2-(4-Hydroxy-phenyl)-1-{4-[2-(4-hydroxy-piperidin-1-yl)-ethoxy]-benzyl}-3-methyl-1H-indol-5-ol]			16%	14%
Cc1c(-c2ccc(O)cc2)n(Cc2ccc(OCCN3CCCC(C)C3)cc2)c2ccc(O)cc12 (stereo not shown) [No. 109, 2-(4-Hydroxy-phenyl)-3-methyl-1-{4-[2-(3-methyl-piperidin-1-yl)-ethoxy]-benzyl}-1H-indol-5-ol]			5%	6%
CCc1c(-c2ccc(O)cc2)n(Cc2ccc(OCCN3CCCCC3)cc2)c2ccc(O)cc12 [No. 137, 2-(4-Hydroxy-phenyl)-3-ethyl-1-[4-(2-piperidin-1-yl-ethoxy)-benzyl]-1H-indol-5-ol]			8%	6%
Cc1c(-c2ccc(O)cc2)n(Cc2ccc(OCCN3CCCCC3)cc2)c2ccc(F)cc12 [No. 94, 4-{5-Fluoro-3-methyl-1-[4-(2-piperidin-1-yl-ethoxy)-benzyl]-1H-indol-2-yl}-phenol]	93.7 mg	28.1 mg		
Cc1c(-c2ccc(O)cc2)n(Cc2ccc(OCCN3CCCC(C)(C)C3)cc2)c2ccc(O)cc12 [No. 111, 1-{4-[2-(3,3-Dimethyl-piperidin-1-yl)-ethoxy]-benzyl}2-(4-hydroxy-phenyl)-3-methyl-1H-indol-5-ol]			23%	25%
CC/C(=C(\c1ccccc1)c1ccc(OCCN(C)C)cc1)c1ccccc1 [tamoxifen]		71.4 mg		
Cc1c(-c2ccc(O)cc2)n(Cc2ccc(OCCN3CC4(C)CC3CC(C)(C)C4)cc2)c2ccc(O)cc12 (stereo not shown) [No. 115, 2-(4-Hydroxy-phenyl)-3-methyl-1-{4-[2-(1,3,3-trimethyl-6-aza-bicyclo[3.2.1]oct-6-yl)-ethoxy]-benzyl}-1H-indol-5-ol]			10%	11%
Cc1c(-c2ccc(O)cc2)n(Cc2ccc(OCCN3CCCCC3C)cc2)c2ccc(O)cc12 (stereo not shown) [No. 108, 2-(4-Hydroxy-phenyl)-3-methyl-1-{4-[2-(2-methyl-piperidin-1-yl)-ethoxy]-benzyl}-1H-indol-5-ol]			10%	11%
Cc1c(-c2ccc(O)cc2)n(Cc2ccc(OCCN(C(C)C)C(C)C)cc2)c2ccc(O)cc12 [No. 104, 1-[4-(2-Diisopropylamino-ethoxy)-benzyl]-2-(4-hydroxy-phenyl)-3-methyl-1H-indol-5-ol]			7%	7%
Cc1c(-c2ccc(O)cc2)n(Cc2ccc(OCCCN3CCCCC3)cc2)c2ccc(O)cc12 [No. 166, 2-(4-Hydroxy-phenyl)-3-methyl-1-{4-[3-(piperidin-1-yl)-propoxy]-benzyl}-1H-indol-5-ol]			23%	25%
N#Cc1c(-c2ccc(O)cc2)n(Cc2ccc(OCCN3CCCCCC3)cc2)c2ccc(O)cc12 [No. 139, 1-[4-(2-Azepan-1-yl-ethoxy)-benzyl]-5-hydroxy-2-(4-hydroxy-phenyl)-1H-indole-3-carbonitrile]	45.0 mg	30.4 mg		
Cc1c(-c2ccc(O)cc2)n(Cc2ccc(OCCN3C[C@@H]4CC[C@H]3C4)cc2)c2ccc(O)cc12 [No. 114, (1S,4R)-1-{4-[2-(2-Aza-bicyclo[2.2.1]hept-2-yl)-ethoxy]-benzyl}-2-(4-hydroxy-phenyl)-3-methyl-1H-indol-5-ol]			−1%	1%
Cc1c(-c2ccccc2)n(Cc2ccc(OCCN3CCCCCC3)cc2)c2ccc(O)cc12 [No. 95, 1-[4-(2-Azepan-1-yl-ethoxy)-benzyl]-3-methyl-2-phenyl-1H-indol-5-ol]			−4%	−4%
Cc1c(-c2ccc(O)cc2)n(Cc2ccc(OCCN3CCC(C)CC3)cc2)c2ccc(O)cc12 [No. 110, 2-(4-Hydroxy-phenyl)-3-methyl-1-{4-[2-(4-methyl-piperidin-1-yl)-ethoxy]-benzyl}-1H-indol-5-ol]			10%	8%
